Measured values published in patent publication US20200261534A1, “NEW TREATMENTS OF MULTIPLE MYELOMA” (priority 2017, published 2020).
Read-outs that look alike come from different tables or passages of the source. Starred links: 1 amine or outer side, 2 acyl side, 3 side chain; linkers in the order of their positions; H or OH if unused. Positions of bridges follow the written chain, without caps; N, C: chain ends. Non-standard residues stand in square brackets, D forms with d. Residues, ends and D or L forms follow the SMILES beside them. ξ: configuration not given here. Biphenyl(4,4'-CH2)2 = c1cc(-c2ccc(C[*:2])cc2)ccc1C[*:1]; ξαMeNle(6-ylidene) = CC(CCCC=[*:3])(N[*:1])C(=O)[*:2]; X1 = CC(CCCCCCC=[*:3])(N[*:1])C(=O)[*:2]; Octanediyl(1,8) = C(CCCC[*:2])CCC[*:1]; ξC = NC(CS)C(=O)O

Experiments:
Type in all cases: cell-based
[1] = test system: NCI-H128, epithelial (small cell lung cancer); experiment: MTT viability assay, NCI-H128
Method: NCI-[…], epithelial (small cell lung cancer), ATCC: HTB-120TM […] During the amplification step and the assays adherent cells were rinsed with DPBS (Dulbecco's Phosphate Buffered Saline, Sigma D1283) three times and afterward treated for 5 minutes with trypsin ([…]) (Gibco-BRL, 15400054) in solution of DPBS at 37° C., and, once detached, transferred in the culturing medium. No-adherent cells were centrifuged and transferred in the culturing medium. Cells were counted in a Neubauer chamber after labelling with Tripan-Blue. […] Cells were seeded at a density of 10,000 cells/well in 100 μl of medium in 96 well plates. […] Controls are the untreated cells. Each experiment was performed in triplicate. Cells were incubated with the compounds at the indicated concentrations during 24-72 h in incubator under CO2 atmosphere at 37° C. […] Stock solution of MTT (475989 Calbiochem) was 5 mg/ml in PBS. 1×.10 μl/well of MTT solution were added and the plate was incubated for 3-4 hr. […] Plates were incubated for 16 h at room temperature under orbital shaking. Absorbance at 570 nm was finally measured. […] The dose/response curve was fitted through the sigmoidal equation dose-response (variable slope) and the IC50 values were calculated as follow: […]

[2] = test system: NCI-H929, lymphoblast (myeloma); experiment: MTT viability assay, NCI-H929; conditions: 24-72 h, Table 7, read-out: IC50 values in μM for S09
Method: NCI-H929, lymphoblast (myeloma), ATCC® CRL-9068™
(§1) All cell lines were cultured in incubator at 37° C. in RPMI-1640 (Sigma R8758) medium with 10% of fetal bovine serum inactivated (FBS) and 2 mM glutamine (Sigma G7513). During the amplification step cells were centrifuged and transferred into the culturing medium. Cells were counted in a Neubauer chamber after labelling with Tripan-Blue.
(§2) Cells were seeded at a density of 10000 cells/well in 100 μl of medium in 96 well plates. After 24 h, the compounds to be tested were added to calculate the dose/response curve at the starting concentration of 100 μM with serial dilutions (1:1). Controls are the untreated cells. Each experiment was performed in triplicate.
(§3) Cells were incubated with the peptidomimetic compound (S09) at the indicated concentrations during 24-72 h in incubator under CO2 atmosphere at 37° C. Then, cell viability was measured by means of MTT (3-(4,5-dimethylthiazol-2-yl)-2,5-diphenyltetrazolium bromide) assay. Stock solution of MTT (475989 Calbiochem) was 5 mg/ml in PBS. […] Absorbance at 570 nm was finally measured. […]
(§4) Data analysis was performed calculating the percentage of cell viability normalized vs. the values of negative control, which was considered equal to 100%. The dose/response curve was fitted through the sigmoidal equation dose-response (variable slope) and the IC50 values were calculated as follow: […]

[3] = test system: OPM-2, lymphoblast (myeloma); experiment: MTT viability assay, OPM-2; conditions: OPM2, 24-72 h, Table 7, read-out: IC50 values in μM for S09
Method: OPM-2, lymphoblast (myeloma), DSMZ No. ACC50
as §1, §2, §3, §4

[4] = test system: U266, lymphoblast (myeloma); experiment: MTT viability assay, U266; conditions: 24-72 h, Table 7, read-out: IC50 values in μM for S09
Method: U266, lymphoblast (myeloma), ATCC® TIB196™
as §1, §2, §3, §4

[5] = test system: MM144, lymphoblast (myeloma); experiment: MTT viability assay, MM144; conditions: 24-72 h, Table 7, read-out: IC50 values in μM for S09
Method: MM144, lymphoblast (myeloma), University of Salamanca
as §1, §2, §3, §4

[6] = test system: BJ, fibroblast (normal skin); experiment: MTT viability assay, BJ; conditions: incubation 24-72 h, Table 3
Method: BJ, fibroblast (normal skin), ATCC® CRL-2522™
Cell lines A549, MCF-7 and RAMOS were cultured in incubator under CO2 (6%) at 37° C. in DMEM high glucose (Dulbecco's Modified Eagle Solution, Gibco-BRL 31966-21) medium with 10% fetal bovine serum inactivated (FBS) (Gibco-BRL 10106-169). Cell lines HL-60 and MM.1S were cultured in incubator at 37° C. in RPMI-1640 (Sigma R8758) medium with 10% of fetal bovine serum inactivated (FBS) and 2 mM glutamine (Sigma G7513). Cell lines BJ were cultured in incubator under CO2 (6%) at 37° C. in Eagle's Minimum Essential Medium (Sigma, M-2279) with 10% fetal bovine serum inactivated (FBS) (Gibco-BRL 10106-169).
During the amplification step and the assays adherent cells were rinsed with DPBS (Dulbecco's Phosphate Buffered Saline, Sigma D1283) three times and afterward treated for 5 minutes with trypsin ([…]) (Gibco-BRL, 15400054) in solution of DPBS at 37° C., and, once detached, transferred in the culturing medium. […] Cells were counted in a Neubauer chamber after labelling with Tripan-Blue. […]
as §3, with “compounds” for “peptidomimetic compound (S09)”, “assay.” for “assay. Stock solution of MTT (475989 Calbiochem) was 5 mg/ml in PBS.”

| Compound | IC50 [1] | IC50 [2] | IC50 [3] | IC50 [4] | IC50 [5] | IC50 [6] | IC50 ([1]; NCI-H128, MTT, 24-72 h, Table 12, read-out: IC50 values) |
| --- | --- | --- | --- | --- | --- | --- | --- |
| CC[C@H](C)[C@H](NC(=O)[C@H](Cc1ccc(O)cc1)NC(=O)[C@H](C)NC(=O)C1CSCCCCCCCCSCC(NC(=O)[C@H](CCCCN)NC(=O)[C@@H]2CCCN2C(=O)[C@H](C)N)C(=O)N[C@@H](C(C)C)C(=O)N[C@@H]([C@@H](C)CC)C(=O)N[C@@H](CC(C)C)C(=O)N[C@@H](CCCCN)C(=O)N[C@@H](CCCCN)C(=O)N[C@@H](C)C(=O)N1)C(=O)N[C@@H](CC(C)C)C(=O)N[C@@H](CO)C(=O)O (some centres unmarked) [IDP-P1708160] (H-APK[ξC]VILKKA[ξC]AYILS-OH; linker 4-11 via Octanediyl(1,8); N-terminus and C-terminus assumed) | 16 ± 1 µM |  |  |  |  |  |  |
| CC[C@H](C)[C@H](NC(=O)[C@H](Cc1ccc(O)cc1)NC(=O)[C@H](C)NC(=O)[C@@H]1CSCc2ccc(cc2)-c2ccc(cc2)CSC[C@H](NC(=O)[C@H](CCCCN)NC(=O)[C@@H]2CCCN2C(=O)[C@H](C)N)C(=O)N[C@@H](C(C)C)C(=O)N[C@@H]([C@@H](C)CC)C(=O)N[C@@H](CC(C)C)C(=O)N[C@@H](CCCCN)C(=O)N[C@@H](CCCCN)C(=O)N[C@@H](C)C(=O)N1)C(=O)N[C@@H](CC(C)C)C(=O)N[C@@H](CO)C(=O)O [IDP-P1708161] (H-APKCVILKKACAYILS-OH; linker 4-11 via Biphenyl(4,4'-CH2)2; N-terminus and C-terminus assumed) | 14 ± 1 µM |  |  |  |  |  |  |
| CC[C@H](C)[C@H](NC(=O)[C@H](Cc1ccc(O)cc1)NC(=O)[C@H](C)NC(=O)C1(C)CCCC=CCCCCCCC(C)(NC(=O)[C@H](CCCCN)NC(=O)[C@@H]2CCCN2C(=O)[C@H](C)N)C(=O)N[C@@H](C(C)C)C(=O)N[C@@H]([C@@H](C)CC)C(=O)N[C@@H](CC(C)C)C(=O)N[C@@H](CCCCN)C(=O)N[C@@H](CCCCN)C(=O)N[C@@H](C)C(=O)N1)C(=O)N[C@@H](CC(C)C)C(=O)N[C@@H](CO)C(=O)O (some centres unmarked) [S09, APKXVILKKAXAYILS—OH] (H-APK[X1]VILKKA[ξαMeNle(6-ylidene)]AYILS-OH; staple 4-11; N-terminus assumed) |  | 3.6 µM | 4.8 µM | 7.5 µM | 6.8 µM | 47 ± 0.2 µM | 3 ± 1 µM |
